# Test results reported in BindingDB's records for PubMed 10565829 (Loughborough University, 1999).
# Key:
# [1] = target: Kappa-type opioid receptor (Cavia porcellus, UniProt P41144)
# Mu-type opioid receptor = Mu-type opioid receptor (Cavia porcellus, UniProt P97266)
# Chain of Mu-type opioid receptor (P97266 whole entry): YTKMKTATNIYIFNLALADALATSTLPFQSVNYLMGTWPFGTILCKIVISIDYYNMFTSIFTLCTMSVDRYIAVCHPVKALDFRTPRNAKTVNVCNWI
# Chain of Kappa-type opioid receptor (P41144 whole entry): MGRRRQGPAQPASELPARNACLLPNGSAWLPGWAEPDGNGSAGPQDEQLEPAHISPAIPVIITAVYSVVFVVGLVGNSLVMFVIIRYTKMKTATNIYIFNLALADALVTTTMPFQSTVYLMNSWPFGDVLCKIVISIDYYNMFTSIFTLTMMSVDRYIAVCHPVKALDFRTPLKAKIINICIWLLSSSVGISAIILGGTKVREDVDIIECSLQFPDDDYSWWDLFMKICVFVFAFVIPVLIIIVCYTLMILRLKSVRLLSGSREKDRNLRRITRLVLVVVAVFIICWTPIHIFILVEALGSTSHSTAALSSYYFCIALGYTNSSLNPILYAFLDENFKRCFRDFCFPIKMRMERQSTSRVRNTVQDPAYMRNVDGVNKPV
smiles,measurement,setting,value
CO[C@@]12CC[C@@]3(C[C@@H]1[C@@](C)(O)C(C)(C)C)[C@H]1Cc4ccc(O)c5c4[C@@]3(CCN1CC1CC1)[C@H]2O5 [BUPRENORPHINE],Ki,[1],2 nM
same,Ki,Mu-type opioid receptor,0.57 nM
